Where two headings read alike, the source gives them in different places. Marks after values point to notes of the source that are not given here.
[1] = male rats, Group 2, 3 mg/kg/wk, Day 15, vs Group 1
[2] = male rats, Group 3, 3.75/2.5 mg/kg/wk oral, Day 15
[3] = male rats, Group 3, 3.75/2.5 mg/kg/wk, Day 15
[4] = male rats, Group 3, 3.75/2.5 mg/kg/wk, Day 15, vs Group 1
[5] = male rats, Group 4, 4.69/2 mg/kg/wk oral, Day 15, N 2, vs vehicle Group 1
[6] = male rats, Group 4, 4.69/2 mg/kg/wk, Day 15, vs Group 1

**Q.** With `CCC1(O)C(=O)OCc2c1cc1n(c2=O)Cc2cc3cc4c(cc3nc2-1)OCO4` (stereo not drawn) [FL118] as the compound, how does the “#EOS % Diff” value [1] read?
**A.** −43.40%

**Q.** And the “#LYMP % Diff” value [1]?
**A.** −13.38%

**Q.** What about the “#MONO % Diff” value [1] of the same compound?
**A.** −25.17%

**Q.** And the “#NEUT % Diff” value [1]?
**A.** −34.07%

**Q.** And the “#RET % Diff” value [1]?
**A.** 53.1%

**Q.** And the “% BASO % Diff” value [1]?
**A.** −8.3%

**Q.** What about the “% EOS % Diff” value [1] of the same compound?
**A.** −35.2%

**Q.** What about the “% LYMP % Diff” value [1] of the same compound?
**A.** 3.7%

**Q.** And the “% MONO % Diff” value [1]?
**A.** −6.6%

**Q.** What about the “% NEUT % Diff” value [1] of the same compound?
**A.** −24.1%

**Q.** And the “% RET % Diff” value [1]?
**A.** 62.09%

**Q.** And the “HCT % Diff” value [1]?
**A.** −8.0%

**Q.** What about the “HGB % Diff” value [1] of the same compound?
**A.** −8.9%

**Q.** What about the “MCHC % Diff” value [1] of the same compound?
**A.** −0.8%

**Q.** What about the “MCV % Diff” value [1] of the same compound?
**A.** −2.7%

**Q.** And the “MPV % Diff” value [1]?
**A.** −2.7%

**Q.** What about the “PLT % Diff” value [1] of the same compound?
**A.** 14%

**Q.** What about the “RDW % Diff” value [1] of the same compound?
**A.** 15.7%

**Q.** And the “WBC % Diff” value [1]?
**A.** −16.11%

**Q.** And the “ALB, albumin, Mean” value [2]?
**A.** 34.1 g/L

**Q.** And the “ALP, alkaline phosphatase, Mean” value [2]?
**A.** 113 U/L

**Q.** And the “ALT, alanine aminotransferase, Mean” value [2]?
**A.** 47 U/L

**Q.** What about the “AST, aspartate aminotransferase, Mean” value [2] of the same compound?
**A.** 104 U/L

**Q.** And the “BIL-T, total bilirubin, Mean” value [2]?
**A.** 1.83

**Q.** And the “CK, creatine kinase, Mean” value [2]?
**A.** 296 U/L

**Q.** What about the “CRE, creatinine, Mean” value [2] of the same compound?
**A.** 19 µmol/L

**Q.** What about the “Ca, calcium, Mean” value [2] of the same compound?
**A.** 2.41 mmol/L

**Q.** What about the “GLB, globulin, Mean” value [2] of the same compound?
**A.** 22.0 g/L

**Q.** What about the “K, potassium, Mean” value [2] of the same compound?
**A.** 5.0 mmol/L

**Q.** And the “Na, sodium, Mean” value [2]?
**A.** 143 mmol/L

**Q.** And the “P, inorganic phosphorus, Mean” value [2]?
**A.** 2.38 mmol/L

**Q.** And the “TCHO, total cholesterol, Mean” value [2]?
**A.** 1.73* mmol/L

**Q.** What about the “TG, triglyceride, Mean” value [2] of the same compound?
**A.** 0.33 mmol/L

**Q.** And the “TP, total protein, Mean” value [2]?
**A.** 56.1 g/L

**Q.** And the “UREA, urea, Mean” value [2]?
**A.** 5.60 mmol/L

**Q.** What about the “sGLU, glucose, Mean” value [2] of the same compound?
**A.** 10.18 mmol/L

**Q.** What about the “#BASO Mean” value [3] of the same compound?
**A.** 0.02 10^3/μL

**Q.** What about the “#EOS Mean” value [3] of the same compound?
**A.** 0.07 10^3/μL

**Q.** And the “#LYMP Mean” value [3]?
**A.** 8.02 10^3/μL

**Q.** And the “#MONO Mean” value [3]?
**A.** 0.23 10^3/μL

**Q.** And the “#NEUT Mean” value [3]?
**A.** 1.04 10^3/μL

**Q.** And the “#RET Mean” value [3]?
**A.** 342.9 10^9/L

**Q.** What about the “% BASO Mean” value [3] of the same compound?
**A.** 0.2%

**Q.** And the “% EOS Mean” value [3]?
**A.** 0.8%

**Q.** And the “% LYMP Mean” value [3]?
**A.** 84.7%

**Q.** What about the “% MONO Mean” value [3] of the same compound?
**A.** 2.4%

**Q.** What about the “% NEUT Mean” value [3] of the same compound?
**A.** 11.2%

**Q.** What about the “% RET Mean” value [3] of the same compound?
**A.** 4.74%

**Q.** And the “HCT Mean” value [3]?
**A.** 42.3* %

**Q.** And the “HGB Mean” value [3]?
**A.** 13.8** g/dL

**Q.** And the “MCH Mean” value [3]?
**A.** 19.0 pg

**Q.** What about the “MCHC Mean” value [3] of the same compound?
**A.** 32.6 g/dL

**Q.** And the “MCV Mean” value [3]?
**A.** 58.2 fL

**Q.** And the “MPV Mean” value [3]?
**A.** 6.5 fL

**Q.** What about the “PLT Mean” value [3] of the same compound?
**A.** 1129 10^3/μL

**Q.** What about the “RDW Mean” value [3] of the same compound?
**A.** 14.1*** %

**Q.** What about the “WBC Mean” value [3] of the same compound?
**A.** 9.43 10^3/μL

**Q.** What about the “#EOS % Diff” value [4] of the same compound?
**A.** −30.19%

**Q.** What about the “#LYMP % Diff” value [4] of the same compound?
**A.** −12.51%

**Q.** And the “#MONO % Diff” value [4]?
**A.** −18.88%

**Q.** What about the “#NEUT % Diff” value [4] of the same compound?
**A.** −4.40%

**Q.** What about the “#RET % Diff” value [4] of the same compound?
**A.** 55.7%

**Q.** And the “% EOS % Diff” value [4]?
**A.** −22.2%

**Q.** And the “% LYMP % Diff” value [4]?
**A.** −0.4%

**Q.** And the “% MONO % Diff” value [4]?
**A.** −10.3%

**Q.** What about the “% NEUT % Diff” value [4] of the same compound?
**A.** 7.9%

**Q.** What about the “% RET % Diff” value [4] of the same compound?
**A.** 64.10%

**Q.** What about the “HCT % Diff” value [4] of the same compound?
**A.** −7.5%

**Q.** What about the “HGB % Diff” value [4] of the same compound?
**A.** −8.6%

**Q.** And the “MCHC % Diff” value [4]?
**A.** −1.3%

**Q.** What about the “MCV % Diff” value [4] of the same compound?
**A.** −2.9%

**Q.** What about the “PLT % Diff” value [4] of the same compound?
**A.** 10%

**Q.** And the “RDW % Diff” value [4]?
**A.** 20.5%

**Q.** What about the “WBC % Diff” value [4] of the same compound?
**A.** −11.98%

**Q.** What about the “ALB, albumin, % Diff” value [5] of the same compound?
**A.** −28.9%

**Q.** And the “ALP, alkaline phosphatase, % Diff” value [5]?
**A.** −45%

**Q.** What about the “ALT, alanine aminotransferase, % Diff” value [5] of the same compound?
**A.** 27.5%

**Q.** What about the “AST, aspartate aminotransferase, % Diff” value [5] of the same compound?
**A.** 1.54%

**Q.** And the “BIL-T, total bilirubin, % Diff” value [5]?
**A.** 187.51%

**Q.** What about the “CK, creatine kinase, % Diff” value [5] of the same compound?
**A.** 13%

**Q.** And the “CRE, creatinine, % Diff” value [5]?
**A.** −3%

**Q.** What about the “Ca, calcium, % Diff” value [5] of the same compound?
**A.** −15.35%

**Q.** And the “Cl, chloride, % Diff” value [5]?
**A.** −3%

**Q.** What about the “K, potassium, % Diff” value [5] of the same compound?
**A.** 2.6%

**Q.** And the “Na, sodium, % Diff” value [5]?
**A.** −1%

**Q.** And the “P, inorganic phosphorus, % Diff” value [5]?
**A.** −13.59%

**Q.** And the “TCHO, total cholesterol, % Diff” value [5]?
**A.** 9.81%

**Q.** And the “TG, triglyceride, % Diff” value [5]?
**A.** 52.32%

**Q.** What about the “TP, total protein, % Diff” value [5] of the same compound?
**A.** −33.1%

**Q.** What about the “UREA, urea, % Diff” value [5] of the same compound?
**A.** 71.64%

**Q.** And the “sGLU, glucose, % Diff” value [5]?
**A.** −50.96%

**Q.** And the “#BASO % Diff” value [6]?
**A.** −58.33%

**Q.** What about the “#EOS % Diff” value [6] of the same compound?
**A.** −95.28%

**Q.** What about the “#LYMP % Diff” value [6] of the same compound?
**A.** −57.17%

**Q.** And the “#MONO % Diff” value [6]?
**A.** −0.35%

**Q.** And the “#NEUT % Diff” value [6]?
**A.** −19.87%

**Q.** And the “#RET % Diff” value [6]?
**A.** −87.2%

**Q.** And the “% BASO % Diff” value [6]?
**A.** −37.5%

**Q.** What about the “% EOS % Diff” value [6] of the same compound?
**A.** −95.4%

**Q.** What about the “% LYMP % Diff” value [6] of the same compound?
**A.** −11.9%

**Q.** And the “% MONO % Diff” value [6]?
**A.** 76.5%

**Q.** And the “% NEUT % Diff” value [6]?
**A.** 88.7%

**Q.** And the “% RET % Diff” value [6]?
**A.** −87.53%

**Q.** And the “HCT % Diff” value [6]?
**A.** 1.7%

**Q.** What about the “HGB % Diff” value [6] of the same compound?
**A.** 7.1%

**Q.** What about the “MCHC % Diff” value [6] of the same compound?
**A.** 5.4%

**Q.** What about the “MCV % Diff” value [6] of the same compound?
**A.** −6.8%

**Q.** And the “MPV % Diff” value [6]?
**A.** −5.3%

**Q.** What about the “PLT % Diff” value [6] of the same compound?
**A.** −11%

**Q.** And the “RBC % Diff” value [6]?
**A.** 8.98%

**Q.** What about the “RDW % Diff” value [6] of the same compound?
**A.** 4.3%

**Q.** And the “WBC % Diff” value [6]?
**A.** −52.17%

**Q.** And the “NOAEL, females” value (oral, once weekly)?
**A.** 3 mg/kg/wk

**Q.** And the “NOAEL, males” value (oral, once weekly)?
**A.** 2 mg/kg/wk
